Measured values published in patent US11478461B2, “[1.1.1] bicyclo compounds as indoleamine 2,3-dioxygenase inhibitors” (Merck Sharp & Dohme Corp., priority 2018, dated 2022).

These molecules were tested against IDO1 (Homo sapiens, UniProt P14902) (assay: IDO1 Cellular Assay in Hela Cells Stimulated with IFNγ). Settings: IFNγ 100 ng/mL, 300 uM L-tryptophan, about 48 hours, fluorescence readout, read-out: IDO1 HELA Cell Assay, IC50.
Assay type: cell-based
Method: Biological Assays IDO1 Cellular Assay in Hela Cells Stimulated with IFNγ
Hela cells were cultured in complete Hela culture medium ([…], 10% heat-inactivated fetal bovine serum) and expanded to about 1×10^9 cells. The cells were then collected and frozen down at 10×10^6 cells/vial in 1 mL frozen medium (90% complete Hela culture medium, 10% DMSO).
Compounds to be tested were serially diluted in ten 3-fold steps in DMSO starting from 10 mM DMSO stocks in Echo low volume plate(s). Compound dilutions or DMSO alone were then dispensed from the dilution plate(s) into Greiner black 384-well assay plate(s) (catalog #781086, 50 nL/well) using an Echo 550 acoustic liquid handler (Labcyte).
Frozen Hela cells were thawed and transferred into Hela assay medium (99% complete Hela culture medium, 1% Pen/Strep) with 20 mL medium/vial of cells. The cells were spun down at 250 g in a table top centrifuge for 5 min and suspended in same volume of Hela assay medium. […] Sterile L-tryptophan were added to the cells with final concentration of 300 uM L-tryptophan. A small aliquot (2 mL/plate) of Hela cells were set aside and were not treated with IFNγ, to serve as the Max-E control. The rest of Hela cells were added with sterile IFNγ (Cat #285-IF, R & D systems) with a final concentration of 100 ng/mL.
Hela cells with and without IFNγ were dispensed to the respective wells of 384-well assay plates containing the compounds. The plates were incubated for about 48 hours at a 37° C., 5% CO2 incubator. Afterwards, 12 μL of 0.5 M methyl isonipecotate in dimethyl sulfoxide were added into each well and the plates were sealed and incubated at 37° C. without CO2 overnight. The plates were centrifuged for 1 min at 200×g. The resulting fluorescence was measured in a Spectramax plate reader (Molecular Devices) with a 400 nm excitation filter and a 510 nm emission filter.
Potencies were calculated by […] least squares fit to the four parameter logistic IC50 equation.

IDO1, sequence (P14902 whole entry): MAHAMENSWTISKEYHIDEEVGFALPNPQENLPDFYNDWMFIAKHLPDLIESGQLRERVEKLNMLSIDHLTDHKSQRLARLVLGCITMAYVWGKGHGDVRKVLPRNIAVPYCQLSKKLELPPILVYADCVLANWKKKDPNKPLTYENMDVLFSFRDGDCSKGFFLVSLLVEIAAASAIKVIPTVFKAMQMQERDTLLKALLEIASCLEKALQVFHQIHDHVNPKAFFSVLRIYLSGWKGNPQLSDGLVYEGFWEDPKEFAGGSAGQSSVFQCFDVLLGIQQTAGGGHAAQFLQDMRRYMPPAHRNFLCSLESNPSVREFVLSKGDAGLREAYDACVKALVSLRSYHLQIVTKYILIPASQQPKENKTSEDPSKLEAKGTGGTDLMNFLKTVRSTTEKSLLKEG

IC50 | SMILES
463 nM | CC(C(=O)Nc1ccc(F)cc1)C12CC(NC(=O)c3cc4ccccc4cn3)(C1)C2 (centres unmarked) [Example 144, N-[3-[2-(4-fluoroanilino)-1-methyl-2-oxo-ethyl]-1-bicyclo[1.1.1]pentanyl]isoquinolin-2-ium-3-carboxamide]
387 nM | CC(C(=O)Nc1ccc(F)cc1)C12CC(NC(=O)c3ncccc3F)(C1)C2 (centres unmarked) [Example 137, 3-fluoro-N-[3-[2-(4-fluoroanilino)-1-methyl-2-oxo-ethyl]-1-bicyclo[1.1.1]pentanyl]pyridin-1-ium-2-carboxamide]
226 nM | C[C@H](C(=O)Nc1ccc(F)cc1)C12CC(NC(=O)c3cccc(Cl)c3F)(C1)C2 [Example 51, 3-chloro-2-fluoro-N-[3-[(1S)-2-(4-fluoroanilino)-1-methyl-2-oxo-ethyl]-1-bicyclo[1.1.1]pentanyl]benzamide]
28.1 nM | Cc1ncc(C(=O)NC23CC([C@H](C)C(=O)Nc4ccc(F)cc4)(C2)C3)cc1F [Example 65, 5-fluoro-N-[3-[(1S)-2-(4-fluoroanilino)-1-methyl-2-oxo-ethyl]-1-bicyclo[1.1.1]pentanyl]-6-methyl-pyridin-1-ium-3-carboxamide]
564 nM | CC(C(=O)Nc1ccc(Cl)cc1)C12CC(NC(=O)OC3CC3)(C1)C2 (single isomer, unassigned) [Example 19, Cyclopropyl (3-(1-((4-chlorophenyl)amino)-1-oxopropan-2-yl)bicyclo [1.1.1]pentan-1-yl) carbamate]
6.52 nM | C[C@H](C(=O)Nc1ccc(F)cc1)C12CC(NC(=O)c3cncc(Cl)c3)(C1)C2 [Example 59, 5-chloro-N-[3-[(1S)-2-(4-fluoroanilino)-1-methyl-2-oxo-ethyl]-1-bicyclo[1.1.1]pentanyl]pyridin-1-ium-3-carboxamide]
176 nM | C[C@H](C(=O)Nc1ccc(F)cc1)C12CC(NC(=O)c3ccc4cccnc4c3)(C1)C2 [Example 147, (S)-N-(3-(1-((4-fluorophenyl)amino)-1-oxopropan-2-yl)bicyclo[1.1.1]pentan-1-yl)quinoline-7-carboxamide]
3.29 nM | Cc1cc(C(=O)NC23CC([C@H](C)C(=O)Nc4ccc(F)cc4)(C2)C3)ccc1Cl [Example 50, 4-chloro-N-[3-[(1S)-2-(4-fluoroanilino)-1-methyl-2-oxo-ethyl]-1-bicyclo[1.1.l]pentanyl]-3-methyl-benzamide]
183 nM | CC(C(=O)Nc1ccc(Cl)nc1)C12CC(NC(=O)c3cccc(Cl)c3)(C1)C2 (single isomer, unassigned) [Example 16, 3-chloro-N-(3-(1-((6-chloropyridin-3-yl)amino)-1-oxopropan-2-yl)bicyclo[1.1.1]pentan-1-yl)benzamide]
109 nM | Cc1cc(C(=O)NC23CC([C@@H](C)C(=O)Nc4ccc(F)cc4)(C2)C3)ccc1Cl [Example 45, 4-chloro-N-[3-[(1R)-2-(4-fluoroanilino)-1-methyl-2-oxo-ethyl]-1-bicyclo[1.1.l]pentanyl]-3-methyl-benzamide]
89.4 nM | Cc1ccnc(C(=O)NC23CC(C(C)C(=O)Nc4ccc(F)cc4)(C2)C3)c1 (centres unmarked) [Example 118, N-[3-[2-(4-fluoroanilino)-1-methyl-2-oxo-ethyl]-1-bicyclo[1.1.1]pentanyl]-4-methyl-pyridin-1-ium-2-carboxamide]
47.7 nM | Cc1nc(C(=O)NC23CC(C4(NC(=O)c5ccc(F)cc5)CC4)(C2)C3)no1 [Example 30, N-(3-(1-(4-fluorobenzamido)cyclopropyl)bicyclo[1.1.1]pentan-1-yl)-5-methyl-1,2,4-oxadiazole-3-carboxamide]
28.7 nM | CC(NC(=O)c1ccc(F)cc1)C12CC(NC(=O)c3ccc(Cl)c(Cl)c3)(C1)C2 (single isomer, unassigned) [Example 22, 3,4-Dichloro-N-(3-(1-(4-fluorobenzamido)ethyl)bicyclo [1.1.1]pentan-1-yl) Benzamide]
90.3 nM | C[C@H](C(=O)Nc1ccc(F)cc1)C12CC(NC(=O)Nc3cccc(C(F)(F)F)c3)(C1)C2 [Example 87, (S)-N-(4-fluorophenyl)-2-(3-(3-(3-(trifluoromethyl)phenyl)ureido)bicyclo[1.1.1]pentan-1-yl)propanamide]
377 nM | O=C(NC1(C23CC(NC(=O)c4ccc(C(F)(F)F)cn4)(C2)C3)CC1)c1ccc(F)cc1 [Example 26, N-(3-(1-(4-fluorobenzamido)cyclopropyl)bicyclo[1.1.1]pentan-1-yl)-5-(trifluoromethyl)picolinamide]
97.9 nM | CC(C(=O)Nc1ccc(Cl)cc1)C12CC(NC(=O)c3cccc(C#N)c3)(C1)C2 (single isomer, unassigned) [Example 12, N-(3-(1-((4-chlorophenyl)amino)-1-oxopropan-2-yl)bicyclo[1.1.1]pentan-1-yl)-3-cyanobenzamide]
105 nM | C[C@H](C(=O)Nc1cnc(Cl)c(Cl)c1)C12CC(NC(=O)c3ccc(Cl)c(Cl)c3)(C1)C2 [Example 93, (S)-3,4-dichloro-N-(3-(1-((5,6-dichloropyridin-3-yl)amino)-1-oxopropan-2-yl)bicyclo[1.1.1]pentan-1-yl)benzamide]
113 nM | Cc1cccc(C(=O)NC23CC(C(C)C(=O)Nc4ccc(F)cc4)(C2)C3)n1 (centres unmarked) [Example 119, N-[3-[2-(4-fluoroanilino)-1-methyl-2-oxo-ethyl]-1-bicyclo[1.1.1]pentanyl]-6-methyl-pyridin-1-ium-2-carboxamide]
23.2 nM | C[C@H](C(=O)Nc1ccc(C(F)(F)F)cc1)C12CC(NC(=O)c3ccc(Cl)c(Cl)c3)(C1)C2 [Example 98, (S)-3,4-dichloro-N-(3-(1-oxo-1-((4-(trifluoromethyl)phenyl)amino)propan-2-yl)bicyclo[1.1.1]pentan-1-yl)benzamide]
34.8 nM | C[C@H](C(=O)Nc1ccc(F)cc1)C12CC(NC(=O)c3cccc(C(F)(F)F)n3)(C1)C2 [Example 152, (S)-N-(3-(1-((4-fluorophenyl)amino)-1-oxopropan-2-yl)bicyclo[1.1.1]pentan-1-yl)-6-(trifluoromethyl)picolinamide]
315 nM | C[C@@H](C(=O)Nc1cnc(F)c(F)c1)C12CC(NC(=O)c3ccc(Cl)c(Cl)c3)(C1)C2 [Example 88, (R)-3,4-Dichloro-N-(3-(1-((5,6-difluoropyridin-3-yl)amino)-1-oxopropan-2-yl)bicyclo[1.1.1]pentan-1-yl)benzamide]
38.6 nM | CC(C(=O)Nc1ccc(Cl)cc1)C12CC(NC(=O)c3cccc(Cl)c3)(C1)C2 (single isomer, unassigned) [Example 6, 3-Chloro-N-(3-(1-((4-chlorophenyl)amino)-1-oxopropan-2-yl)bicyclo [1.1.1]pentan-1-yl) Benzamide]
118 nM | C[C@@H](C(=O)Nc1cnc(Cl)nc1)C12CC(NC(=O)c3ccc(Cl)c(Cl)c3)(C1)C2 [Example 90, (R)-3,4-dichloro-N-(3-(1-((2-chloropyrimidin-5-yl)amino)-1-oxopropan-2-yl)bicyclo[1.1.1]pentan-1-yl)benzamide]
20.7 nM | O=C(NC12CC(C3(C(=O)Nc4ccc(F)cc4)COC3)(C1)C2)c1cccc(Cl)c1 [Example 104, 3-(3-(3-Chlorobenzamido)bicyclo[1.1.1]pentan-1-yl)-N-(4-fluorophenyl)oxetane-3-carboxamide]
55.6 nM | Cc1cc(C(=O)NC23CC([C@H](C)C(=O)Nc4ccc(F)cc4)(C2)C3)ccc1C#N [Example 151, (S)-4-cyano-N-(3-(1-((4-fluorophenyl)amino)-1-oxopropan-2-yl)bicyclo[1.1.1]pentan-1-yl)-3-methylbenzamide]
67 nM | CC(C(=O)Nc1ccc(F)cc1)C12CC(NC(=O)c3noc4c3CCCC4)(C1)C2 (centres unmarked) [Example 115, N-[3-[2-(4-fluoroanilino)-1-methyl-2-oxo-ethyl]-1-bicyclo[1.1.1]pentanyl]-4,5,6,7-tetrahydro-1,2-benzoxazole-3-carboxamide]
29.2 nM | CC(C(=O)Nc1ccc(Cl)cc1)C12CC(NC(=O)OC3CC3)(C1)C2 (single isomer, unassigned) [Example 20, Cyclopropyl (3-(1-((4-chlorophenyl)amino)-1-oxopropan-2-yl)bicyclo [1.1.1]pentan-1-yl) carbamate]
396 nM | Cc1cc(C(=O)NC23CC(C(C)C(=O)Nc4ccc(F)cc4)(C2)C3)n(C)n1 (centres unmarked) [Example 139, N-[3-[2-(4-fluoroanilino)-1-methyl-2-oxo-ethyl]-1-bicyclo[1.1.1]pentanyl]-2,5-dimethyl-pyrazole-3-carboxamide]
276 nM | O=C(NC1(C23CC(NC(=O)c4nc(C5CC5)no4)(C2)C3)CC1)c1ccc(F)cc1 [Example 29, 3-cyclopropyl-N-(3-(1-(4-fluorobenzamido)cyclopropyl)bicyclo[1.1.1]pentan-1-yl)-1,2,4-oxadiazole-5-carboxamide]
